Reference: publication PMC5218480 (PLoS ONE, 2017)

Test system: MV-4-11 cells
Assay: Gene expression microarray analysis (Affymetrix PrimeView) and GSEA
Format: cell-based, human
Design: RFU PODN (11730768_x_at) / Fold change /veh PODN (11730768_x_at) / RFU LINC00158 (11744669_a_at) / Fold change /veh LINC00158 (11744669_a_at) / RFU DUSP10 (11751237_a_at) / Fold change /veh DUSP10 (11751237_a_at) / RFU ID3 (11757404_x_at) / Fold change /veh ID3 (11757404_x_at) / RFU PLEKHG5 (11737974_s_at) / Fold change /veh PLEKHG5 (11737974_s_at) / RFU LRRC4B (11730491_at) / Fold change /veh LRRC4B (11730491_at) / RFU GIMAP4 (11747438_a_at) / Fold change /veh GIMAP4 (11747438_a_at) / RFU KRT8 (11758183_x_at) / Fold change /veh KRT8 (11758183_x_at) / RFU CNN1 (11734310_a_at) / Fold change /veh CNN1 (11734310_a_at) / RFU VPS37D (11726825_at) / Fold change /veh VPS37D (11726825_at) / RFU C10orf10 (11716522_x_at) / Fold change /veh C10orf10 (11716522_x_at) / RFU KIR2DL2 /// KIR2DL4 /// KIR2DL5A /// KIR2DL5B /// KIR2DS1 /// KIR2DS2 /// KIR2DS3 /// KIR2DS4 /// KIR3DL3 /// KIR3DL3 /// KIR3DS1 (11738374_at) / Fold change /veh KIR2DL2 /// KIR2DL4 /// KIR2DL5A /// KIR2DL5B /// KIR2DS1 /// KIR2DS2 /// KIR2DS3 /// KIR2DS4 /// KIR3DL3 /// KIR3DL3 /// KIR3DS1 (11738374_at) / RFU C1QL1 (11718748_at) / Fold change /veh C1QL1 (11718748_at) / RFU TMPRSS4 (11747572_a_at) / Fold change /veh TMPRSS4 (11747572_a_at) / RFU HAMP (11756126_x_at) / Fold change /veh HAMP (11756126_x_at) / RFU RNFT2 (11725882_a_at) / Fold change /veh RNFT2 (11725882_a_at) / RFU NR4A2 (11747474_a_at) / Fold change /veh NR4A2 (11747474_a_at) / RFU ABCC12 (11746883_a_at) / Fold change /veh ABCC12 (11746883_a_at) / RFU TMEM136 (11760407_x_at) / Fold change /veh TMEM136 (11760407_x_at) / RFU CLDN22 /// WWC2 (11732394_at) / Fold change /veh CLDN22 /// WWC2 (11732394_at) / RFU HLA-DPB1 (11760878_x_at) / Fold change /veh HLA-DPB1 (11760878_x_at) / RFU SPINT1 (11716480_a_at) / Fold change /veh SPINT1 (11716480_a_at) / RFU GAP43 (11754022_s_at) / Fold change /veh GAP43 (11754022_s_at) / RFU A4GNT (11735810_at) / Fold change /veh A4GNT (11735810_at) / RFU PRB3 (11715151_x_at) / Fold change /veh PRB3 (11715151_x_at) / RFU TUBB4B (11761932_at) / Fold change /veh TUBB4B (11761932_at) / RFU CAPN14 (11732068_a_at) / Fold change /veh CAPN14 (11732068_a_at) / RFU TMCC2 (11721928_a_at) / Fold change /veh TMCC2 (11721928_a_at) / RFU IRGQ (11745062_a_at) / Fold change /veh IRGQ (11745062_a_at) / RFU FAM174B (11720279_a_at) / Fold change /veh FAM174B (11720279_a_at) / RFU TMPRSS4 (11748680_a_at) / Fold change /veh TMPRSS4 (11748680_a_at) / RFU FAM212B (11763350_a_at) / Fold change /veh FAM212B (11763350_a_at) / RFU PLEKHG5 (11743358_a_at) / Fold change /veh PLEKHG5 (11743358_a_at) / RFU ZSCAN30 (11745921_a_at) / Fold change /veh ZSCAN30 (11745921_a_at) / RFU CMKLR1 (11741424_a_at) / Fold change /veh CMKLR1 (11741424_a_at) / RFU LOC101060620 /// MAPK8IP1 (11723275_at) / Fold change /veh LOC101060620 /// MAPK8IP1 (11723275_at) / RFU SPTSSB (11747773_x_at) / Fold change /veh SPTSSB (11747773_x_at) / RFU PRSS12 (11739890_at) / Fold change /veh PRSS12 (11739890_at) / RFU BIN1 (11741810_x_at) / Fold change /veh BIN1 (11741810_x_at) / RFU WNT11 (11732464_a_at) / Fold change /veh WNT11 (11732464_a_at) / RFU C10orf10 (11716521_a_at) / Fold change /veh C10orf10 (11716521_a_at) / RFU C5orf56 (11738089_at) / Fold change /veh C5orf56 (11738089_at) / RFU CYB561 (11721691_x_at) / Fold change /veh CYB561 (11721691_x_at) / RFU ANKRD19P (11752326_a_at) / Fold change /veh ANKRD19P (11752326_a_at) / RFU OR2T12 /// OR2T33 /// OR2T8 (11738714_s_at) / Fold change /veh OR2T12 /// OR2T33 /// OR2T8 (11738714_s_at) / RFU VCAN (11748164_a_at) / Fold change /veh VCAN (11748164_a_at) / RFU JSRP1 (11732532_at) / Fold change /veh JSRP1 (11732532_at) / RFU KRTAP10-11 (11738290_x_at) / Fold change /veh KRTAP10-11 (11738290_x_at) / RFU MYO3A (11730013_a_at) / Fold change /veh MYO3A (11730013_a_at) / RFU EBF3 (11725865_a_at) / Fold change /veh EBF3 (11725865_a_at) / RFU CAMK2N1 (11719241_x_at) / Fold change /veh CAMK2N1 (11719241_x_at) / RFU C5orf56 (11738088_a_at) / Fold change /veh C5orf56 (11738088_a_at) / RFU OLFML3 (11715873_a_at) / Fold change /veh OLFML3 (11715873_a_at) / RFU LOC100653217 /// NTM (11731650_a_at) / Fold change /veh LOC100653217 /// NTM (11731650_a_at) / RFU MAPK11 (11762145_a_at) / Fold change /veh MAPK11 (11762145_a_at) / RFU FIZ1 (11724087_x_at) / Fold change /veh FIZ1 (11724087_x_at) / RFU OASL (11726364_x_at) / Fold change /veh OASL (11726364_x_at) / RFU SOX15 (11748057_x_at) / Fold change /veh SOX15 (11748057_x_at) / RFU CD79A (11719716_a_at) / Fold change /veh CD79A (11719716_a_at) / RFU HIST1H1D (11736915_at) / Fold change /veh HIST1H1D (11736915_at) / RFU CASKIN2 (11723855_a_at) / Fold change /veh CASKIN2 (11723855_a_at) / RFU LOC730098 (11760151_x_at) / Fold change /veh LOC730098 (11760151_x_at) / RFU OR4N2 (11742367_at) / Fold change /veh OR4N2 (11742367_at) / RFU PRRT2 (11749266_a_at) / Fold change /veh PRRT2 (11749266_a_at) / RFU SNX32 (11753110_a_at) / Fold change /veh SNX32 (11753110_a_at) / RFU CDHR5 (11726645_a_at) / Fold change /veh CDHR5 (11726645_a_at) / RFU RCAN1 (11760418_a_at) / Fold change /veh RCAN1 (11760418_a_at) / RFU FAM167A (11723789_a_at) / Fold change /veh FAM167A (11723789_a_at) / RFU FAM26E (11764081_at) / Fold change /veh FAM26E (11764081_at) / RFU ISYNA1 (11749810_s_at) / Fold change /veh ISYNA1 (11749810_s_at) / RFU ACY1 (11761880_at) / Fold change /veh ACY1 (11761880_at) / RFU 11764098_at / Fold change /veh 11764098_at / RFU SAMD14 (11745864_x_at) / Fold change /veh SAMD14 (11745864_x_at) / RFU NPB (11741838_a_at) / Fold change /veh NPB (11741838_a_at) / RFU TMPRSS6 (11731388_a_at) / Fold change /veh TMPRSS6 (11731388_a_at) / RFU KRTAP10-2 (11738614_at) / Fold change /veh KRTAP10-2 (11738614_at) / RFU ARHGAP8 /// PRR5-ARHGAP8 (11727945_x_at) / Fold change /veh ARHGAP8 /// PRR5-ARHGAP8 (11727945_x_at) / RFU KRTAP5-7 /// NADSYN1 (11734609_at) / Fold change /veh KRTAP5-7 /// NADSYN1 (11734609_at) / RFU RASL12 (11751679_a_at) / Fold change /veh RASL12 (11751679_a_at) / RFU CDKN2B (11736163_a_at) / Fold change /veh CDKN2B (11736163_a_at) / RFU PRF1 (11729649_at) / Fold change /veh PRF1 (11729649_at) / RFU, ZNF638 /// ZNF638-IT1 / Fold change vs veh, ZNF638 /// ZNF638-IT1 / RFU, PANK3 / Fold change vs veh, PANK3 / RFU, SH3YL1 / Fold change vs veh, SH3YL1 / RFU, ZEB2 / Fold change vs veh, ZEB2 / RFU, NRIP1 / Fold change vs veh, NRIP1 / RFU, PTTG1IP / Fold change vs veh, PTTG1IP / RFU, CAPN2 / Fold change vs veh, CAPN2 / RFU, MED14 / Fold change vs veh, MED14 / RFU, SNORA58 / Fold change vs veh, SNORA58 / RFU, C1orf63 / Fold change vs veh, C1orf63 / RFU, LRRFIP1 / Fold change vs veh, LRRFIP1 / RFU, NDUFAF7 / Fold change vs veh, NDUFAF7 / RFU, SLC12A2 / Fold change vs veh, SLC12A2 / RFU, IBTK / Fold change vs veh, IBTK / RFU, ESF1 / Fold change vs veh, ESF1 / Fold change vs veh, TMEM50B / RFU, TAOK1 / Fold change vs veh, TAOK1 / RFU, ACBD3 / Fold change vs veh, ACBD3 / RFU, TMA16 / Fold change vs veh, TMA16 / RFU, RWDD3 / Fold change vs veh, RWDD3 / RFU, BCAT1 / Fold change vs veh, BCAT1 / RFU, EDEM3 / Fold change vs veh, EDEM3 / RFU, TMEM33 / Fold change vs veh, TMEM33 / RFU, WDR75 / Fold change vs veh, WDR75 / RFU, AHCTF1 / Fold change vs veh, AHCTF1 / RFU, TFRC / Fold change vs veh, TFRC / RFU, ZDHHC17 / Fold change vs veh, ZDHHC17 / RFU, NOM1 / Fold change vs veh, NOM1 / RFU, ARL8B / Fold change vs veh, ARL8B / RFU, ZBTB11 / Fold change vs veh, ZBTB11 / RFU, TAMM41 / Fold change vs veh, TAMM41 / RFU, KIAA1704 /// LOC100996395 / Fold change vs veh, KIAA1704 /// LOC100996395 / RFU, ING1 / Fold change vs veh, ING1 / RFU, TRMT61B / Fold change vs veh, TRMT61B / RFU, FUBP3 / Fold change vs veh, FUBP3 / RFU, TP53 / Fold change vs veh, TP53 / RFU, TNKS2 / Fold change vs veh, TNKS2 / RFU, ZFP14 / Fold change vs veh, ZFP14 / RFU, ACTR2 / Fold change vs veh, ACTR2 / RFU, PPP3R1 / Fold change vs veh, PPP3R1 / RFU, PIK3R1 / Fold change vs veh, PIK3R1 / RFU, HNRNPA1 / Fold change vs veh, HNRNPA1 / RFU, RNF170 / Fold change vs veh, RNF170 / RFU, ZNF28 / Fold change vs veh, ZNF28 / RFU, RNGTT / Fold change vs veh, RNGTT / RFU, OGT / Fold change vs veh, OGT / RFU, BRD1 / Fold change vs veh, BRD1 / RFU, MARS / Fold change vs veh, MARS / RFU, ZNF655 / Fold change vs veh, ZNF655 / RFU, FAHD1 / Fold change vs veh, FAHD1 / RFU, BDP1 / Fold change vs veh, BDP1 / RFU, LRRCC1 / Fold change vs veh, LRRCC1 / RFU, ARID1A / Fold change vs veh, ARID1A / RFU, ZNF146 / Fold change vs veh, ZNF146 / RFU, ZNF330 / Fold change vs veh, ZNF330 / RFU, GPN3 / Fold change vs veh, GPN3 / RFU, C9orf123 / Fold change vs veh, C9orf123 / RFU, N4BP2L2 / Fold change vs veh, N4BP2L2 / RFU, ARFIP1 / Fold change vs veh, ARFIP1 / RFU, FAM179B / Fold change vs veh, FAM179B / RFU, BCL10 / Fold change vs veh, BCL10 / RFU, UHRF1BP1L / Fold change vs veh, UHRF1BP1L / RFU, BET1 / Fold change vs veh, BET1 / RFU, CNOT2 / Fold change vs veh, CNOT2 / RFU, ZNF268 / Fold change vs veh, ZNF268 / Fold change vs veh, ZNF507 / RFU, DGCR2 / Fold change vs veh, DGCR2 / RFU, WDSUB1 / Fold change vs veh, WDSUB1 / Fold change vs veh, HSP90B1 /// MIR3652 / RFU, ADSS / Fold change vs veh, ADSS / RFU, GK / Fold change vs veh, GK / RFU, ZNF148 / Fold change vs veh, ZNF148 / RFU, TAF9 / Fold change vs veh, TAF9 / RFU, SLC1A5 / Fold change vs veh, SLC1A5 / RFU, SLMO2 / Fold change vs veh, SLMO2 / RFU, ABCC4 / Fold change vs veh, ABCC4 / RFU, LOC101060439 /// RAP1B / Fold change vs veh, LOC101060439 /// RAP1B / RFU, RFX7 / Fold change vs veh, RFX7 / RFU, GTPBP10 / Fold change vs veh, GTPBP10 / RFU, CNEP1R1 / Fold change vs veh, CNEP1R1 / RFU, BIVM-ERCC5 /// ERCC5 / Fold change vs veh, BIVM-ERCC5 /// ERCC5 / RFU, ILF3 / Fold change vs veh, ILF3 / RFU 11762660_at / Fold change /veh 11762660_at / RFU VCAN (11757783_s_at) / Fold change /veh VCAN (11757783_s_at) / RFU DDX43 (11728927_at) / Fold change /veh DDX43 (11728927_at) / RFU KRT8 (11758188_x_at) / Fold change /veh KRT8 (11758188_x_at) / RFU NKD1 (11759106_at) / Fold change /veh NKD1 (11759106_at) / RFU SRD5A1 (11742802_a_at) / Fold change /veh SRD5A1 (11742802_a_at) / RFU TPSAB1 /// TPSB2 (11721975_s_at) / Fold change /veh TPSAB1 /// TPSB2 (11721975_s_at) / RFU GSTM3 (11746129_a_at) / Fold change /veh GSTM3 (11746129_a_at) / RFU IL23R (11737362_x_at) / Fold change /veh IL23R (11737362_x_at) / RFU TMEM51 (11727254_a_at) / Fold change /veh TMEM51 (11727254_a_at) / RFU PIWIL2 (11732686_x_at) / Fold change /veh PIWIL2 (11732686_x_at) / RFU ORM1 (11744905_x_at) / Fold change /veh ORM1 (11744905_x_at) / RFU CCDC152 (11743942_at) / Fold change /veh CCDC152 (11743942_at) / RFU ECM1 (11717891_a_at) / Fold change /veh ECM1 (11717891_a_at) / RFU IL23R (11748794_a_at) / Fold change /veh IL23R (11748794_a_at) / RFU TNFAIP8L3 (11732012_x_at) / Fold change /veh TNFAIP8L3 (11732012_x_at) / RFU MBOAT4 (11741988_at) / Fold change /veh MBOAT4 (11741988_at) / RFU 11764193_at / Fold change /veh 11764193_at / RFU TMEM53 (11763286_at) / Fold change /veh TMEM53 (11763286_at) / RFU MAGEB2 (11727129_at) / Fold change /veh MAGEB2 (11727129_at) / RFU TMEM200A (11744735_a_at) / Fold change /veh TMEM200A (11744735_a_at) / RFU CCDC152 (11751479_a_at) / Fold change /veh CCDC152 (11751479_a_at) / RFU FAM211A (11726209_a_at) / Fold change /veh FAM211A (11726209_a_at) / RFU RGS16 (11746705_a_at) / Fold change /veh RGS16 (11746705_a_at) / RFU VCAN (11755009_s_at) / Fold change /veh VCAN (11755009_s_at) / RFU RHOB (11743442_s_at) / Fold change /veh RHOB (11743442_s_at) / RFU RGS16 (11720943_a_at) / Fold change /veh RGS16 (11720943_a_at) / RFU RGS16 (11720944_at) / Fold change /veh RGS16 (11720944_at) / RFU, VPS4B / Fold change vs veh, VPS4B / RFU, CREB1 / Fold change vs veh, CREB1 / RFU, DNAJC13 / Fold change vs veh, DNAJC13 / RFU, GNAQ / Fold change vs veh, GNAQ / RFU, CDK5R1 / Fold change vs veh, CDK5R1 / RFU, ZRANB3 / Fold change vs veh, ZRANB3 / RFU, CUL4A / Fold change vs veh, CUL4A / RFU, CCNY / Fold change vs veh, CCNY / RFU, UFL1 / Fold change vs veh, UFL1 / RFU, COG3 / Fold change vs veh, COG3 / RFU, DIAPH2 / Fold change vs veh, DIAPH2 / RFU, SKA2 / Fold change vs veh, SKA2 / RFU, AFF3 / Fold change vs veh, AFF3 / RFU, LMF1 / Fold change vs veh, LMF1 / RFU, IPO11 / Fold change vs veh, IPO11 / RFU, DFFB / Fold change vs veh, DFFB / RFU, FOXP1 / Fold change vs veh, FOXP1 / RFU, CARD8 / Fold change vs veh, CARD8 / RFU, STRN3 / Fold change vs veh, STRN3 / RFU, ADK / Fold change vs veh, ADK / RFU, RASSF2 / Fold change vs veh, RASSF2 / RFU, WIPF1 / Fold change vs veh, WIPF1 / RFU, LARP1B / Fold change vs veh, LARP1B / RFU, RASA1 / Fold change vs veh, RASA1 / RFU, RB1 / Fold change vs veh, RB1 / RFU, PPFIA1 / Fold change vs veh, PPFIA1 / RFU, MAT2A / Fold change vs veh, MAT2A / RFU, CCT5 / Fold change vs veh, CCT5 / RFU, WDR92 / Fold change vs veh, WDR92 / RFU, CUX1 / Fold change vs veh, CUX1 / RFU, TTC7A / Fold change vs veh, TTC7A / RFU, TMEM135 / Fold change vs veh, TMEM135 / RFU, DEPTOR / Fold change vs veh, DEPTOR / RFU, CPM / Fold change vs veh, CPM / RFU, DNAJB6 / Fold change vs veh, DNAJB6 / RFU, CACNA2D3 / Fold change vs veh, CACNA2D3 / RFU, DTX4 / Fold change vs veh, DTX4 / RFU, TFCP2 / Fold change vs veh, TFCP2 / RFU, GMCL1 /// GMCL1P1 / Fold change vs veh, GMCL1 /// GMCL1P1 / RFU, AEBP2 / Fold change vs veh, AEBP2 / RFU, SNHG1 /// SNORD22 /// SNORD25 /// SNORD26 /// SNORD27 /// SNORD28 /// SNORD29 /// SNORD31 / Fold change vs veh, SNHG1 /// SNORD22 /// SNORD25 /// SNORD26 /// SNORD27 /// SNORD28 /// SNORD29 /// SNORD31 / Fold change (Aza/veh), C12orf56 (ProbeSet 11735607_a_at) / Fold change (ACY-1035/veh), C12orf56 (ProbeSet 11735607_a_at) / Fold change (Aza/veh), FGFR1OP (ProbeSet 11751329_s_at) / Fold change (ACY-1035/veh), FGFR1OP (ProbeSet 11751329_s_at) / Fold change (Aza/veh), VPS36 (ProbeSet 11739960_a_at) / Fold change (ACY-1035/veh), VPS36 (ProbeSet 11739960_a_at) / RFU SYPL1 (11715823_x_at) / Fold change /veh SYPL1 (11715823_x_at) / RFU IGFBP7 (11715501_s_at) / Fold change /veh IGFBP7 (11715501_s_at) / RFU REEP3 (11722064_at) / Fold change /veh REEP3 (11722064_at) / RFU IGLL1 (11728026_x_at) / Fold change /veh IGLL1 (11728026_x_at): dose or concentration left out as unconfirmed
Settings: ProbeSet 11743580_s_at; LIST B

## Nc1ncn([C@@H]2O[C@H](CO)[C@@H](O)[C@H]2O)c(=O)n1 [azacitidine]
  RFU, ACTR2: 932.68 RFU
